Data from US20110039815A1, “MACROCYCLIC METAL COMPLEXES FOR THEIR USE AS ANTICANCER AGENTS” (priority 2005, published 2011).

What was measured:
[1] = rat, intravenous injection, approximately 172 mg/kg during a six hour period, 0.7% saline
[2] = system: cervical cancer cell line Hela S3; assay: Cell death of cervical cancer cell line Hela S3; assay type: cell-based

^Me3TacnRhCl3 [formula 8]
complex-related toxicity or side effects [1]: no complex-related toxicity or side effects | stability in water: stable | anticancer activity against Hela S3 [2]: positive | Hela cell death rate ([2]; 10^−2 molar preparation (1.5×10^−2 M)): approximately 93.1% | Hela cell death rate ([2]; 10^−3 molar preparation (1.5×10^−3 M)): approximately 90%
